Measurements: article PMC6100724, “Proteome‐wide analysis of phospho‐regulated PDZ domain interactions” (Molecular Systems Biology, 2018)

Assays:
DLG1 PDZ1 = experiment: Phosphomimetic ProP-PD selection with NGS; type: binding, human; settings: mean of selections 1-3, bait DLG1 PDZ1; for Mean fraction #NGS counts wt peptide / total counts selection: wild type peptide; for Mean fraction #NGS counts mimetic peptide / total count selection: phosphomimetic peptide
Summary of the method: (§1)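 Phosphomimetic peptide phage library panned 4 rounds; GST pre-selection; bind 2 h/8°C; wash PBS-Tween. Score = read fraction per set.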

Scribble PDZ3 = experiment: Phosphomimetic ProP-PD selection with NGS; type: binding, human; settings: mean over selections 1-3; bait Scribble PDZ3
Summary of the method: as §1

DLG1 PDZ3 = experiment: Phosphomimetic ProP-PD selection with NGS; type: binding, human; settings: mean of selections 1-3; bait DLG1 PDZ3
Summary of the method: as §1

DLG1 PDZ2 = molecular target: T1, DLG1 PDZ2 (Homo sapiens, UniProt Q12959); experiment: Phosphomimetic ProP-PD selection with NGS; type: binding; settings: mean of selections 1-3, bait DLG1 PDZ2
T1 construct: human DLG1 PDZ2 aa 311–407 in a modified pRSET vector 40; made in house; host or cells: E. coli BL21 Gold (DE3)
Summary of the method: as §1

Scribble PDZ1 = molecular target: T2, Scribble PDZ1 (Homo sapiens, UniProt Q14160); experiment: Pre-phosphorylation ProP-PD: wild-type library treated with RPS6KA1 or not, selection with NGS; type: binding; settings: mean of the two selections, bait Scribble PDZ1; for Phosphorylated selection Mean fraction: Pre-phosphorylation with RPS6KA1; for Unphosphorylated selection Mean fraction: Without Kinase
T2 construct: human Scribble PDZ1 aa 719–829 in; made in house; host or cells: E. coli BL21 Gold (DE3)
Method: For pre‐phosphorylation of the wild‐type ProP‐PD library, we obtained activated RPS6KA1 (Thermo Fisher). The time and amount of kinase required to phosphorylate the ProP‐PD library were tested in a phosphorylation assay.
Phage selections were carried out for four rounds following a protocol by Huang and Sidhu (Huang & Sidhu, 2011) with minor modifications. Non‐specific binding phage was removed by pre‐selections against immobilized GST throughout the selection. The selections against the (pre‐)phosphorylated wild‐type library were performed in 50 mM HEPES (pH 7.4) and 150 mM NaCl (HBS) following the same procedure after pre‐phosphorylation of the library.
• Immobilize proteins (15 μg in 100 μl PBS) in a 96‐well MaxiSorp microtiter plate (NUNC) overnight at 4°C. • Start a 2YT culture of E. coli Omnimax supplemented with 100 μg/ml tetracycline to retain the F pilus epitope. • Block the wells with 200 μl 0.5% BSA in PBS for 2 h at 4°C. • Precipitate naïve phage library (10^11 cfu per selection) or amplified phage pool from the previous round of selection by adding one‐fifth the volume of PEG/NaCl. • Incubate on ice for 10 min, and pellet precipitated phage by centrifugation at 5,300 g for 15 min. Resuspend the phage pellet in 100 μl PBS per selection. • Add 100 μl of phage solution to the GST‐coated pre‐selection wells and incubate for 1 h. • Transfer the phage solution to the immobilized target proteins and allow it to bind for 2 h at 8°C. • Wash the plate four times with 200 μl cold wash buffer (PBS, 0.05% Tween‐20). • Elute bound phage by incubation with 100 μl log phase (0.6–0.8 OD600) E. coli Omnimax for 30 min at 37°C with shaking (200 RPM). • Add 10^12 cfu/ml M13K07 helper phage for hyperinfection of the bacteria and incubate as above for 45 min. • Transfer the bacterial culture to 10 ml 2YT supplemented with 50 μg/ml carbenicillin, 25 μg/ml kanamycin, and 300 μM IPTG and incubate overnight at 37°C while shaking. • Perform phage pool ELISA to monitor the progress of the selection as described previously (Huang & Sidhu, 2011).
• Precipitate the naive wild‐type phage library (as described above, 1.8 × 10^10 cfu phage per selection). • Resuspend the precipitated phage pellets in 100 μl Kinase buffer per selection and add ATP (100 μM final concentration) and RPS6KA1 (500 ng/ml) to the phage solution. In parallel, prepare a negative control where only ATP is added to the phage pool. • Incubate the phosphorylation reaction for 2 h at room temperature. Stop the reaction through PEG/NaCl precipitation (as described above). • Resuspend the phage pool in 100 μl HBS.
During the 4 days of pre‐phosphorylation ProP‐PD selections, the input phage library of each day of selection was subjected to phosphorylation prior to phage selection.
The naïve library and the enriched phage pools of the third day of selection were amplified and barcoded by PCR and analyzed by NGS as described elsewhere (McLaughlin & Sidhu, 2013; Ivarsson et al, 2014). The reads were demultiplexed using the barcode sequences and filtered by discarding sequences with a Phred quality score under 30. Sequences were mapped to the original library using Bowtie (Langmead et al, 2009) with two mismatches between reads and library sequence. Nucleotide mutations leading to amino acid substitutions were subsequently removed. Cutoff values of NGS counts were assigned for each pool. PWMs were generated based on the remaining peptides (aligned on the C‐termini) using WebLogo (Crooks et al, 2004).

T1 sequence (Q12959 311-407): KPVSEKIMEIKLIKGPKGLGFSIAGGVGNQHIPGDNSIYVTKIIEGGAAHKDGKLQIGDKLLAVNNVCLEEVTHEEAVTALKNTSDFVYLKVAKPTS
T2 sequence (Q14160 719-829): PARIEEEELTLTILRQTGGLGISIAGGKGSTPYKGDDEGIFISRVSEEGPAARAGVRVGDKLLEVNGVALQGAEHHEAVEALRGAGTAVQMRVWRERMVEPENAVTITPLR

Sequence | Mean fraction #NGS counts wt peptide / total counts selection (DLG1 PDZ3) | Mean fraction #NGS counts mimetic peptide / total count selection (DLG1 PDZ3) | Phosphorylated selection Mean fraction (Scribble PDZ1) | Unphosphorylated selection Mean fraction (Scribble PDZ1) | also measured
GGKRKETLV | 0.06478 | – | – | – | Mean fraction #NGS counts wt peptide / total counts selection (DLG1 PDZ1): 0.3267; Mean fraction #NGS counts wt peptide / total counts selection (Scribble PDZ3): 6.172e-5; Mean fraction #NGS counts wt peptide / total counts selection (DLG1 PDZ2): 0.3203
SRDRKETSI | 0.002721 | – | – | – | Mean fraction #NGS counts wt peptide / total counts selection (Scribble PDZ3): 0.00255; Mean fraction #NGS counts wt peptide / total counts selection (DLG1 PDZ2): 0.0004401
TNSSSYEHI | – | 0 | – | – | –
RATSPGSGL | 0.001731 | – | – | – | –
TNSSSYSHI | 0.001855 | – | – | – | –
LPKIKETTV [FRMPD4] | – | – | 0.001062 | 0.0007483 | –
RPYRREEEI | – | 0 | – | – | Mean fraction #NGS counts mimetic peptide / total count selection (Scribble PDZ3): 0
PANRRETPV | – | 0.0003587 | – | – | Mean fraction #NGS counts mimetic peptide / total count selection (DLG1 PDZ1): 3.546e-5
TKGISITSI [GNRHR2] | – | – | 3.213e-5 | 3.175e-5 | –
RPYRRESEI | 2.154e-5 | – | – | – | Mean fraction #NGS counts wt peptide / total counts selection (Scribble PDZ3): 9.302e-5; Mean fraction #NGS counts mimetic peptide / total count selection (DLG1 PDZ2): 0; Mean fraction #NGS counts wt peptide / total counts selection (DLG1 PDZ2): 3.461e-5
RATEPGSGL | – | 0 | – | – | –
RQTEYQGVL | – | 3.59e-6 | – | – | Mean fraction #NGS counts mimetic peptide / total count selection (DLG1 PDZ2): 0
EIKLKTSFF | – | 0.01375 | – | – | Mean fraction #NGS counts mimetic peptide / total count selection (DLG1 PDZ1): 0.06227; Mean fraction #NGS counts mimetic peptide / total count selection (Scribble PDZ3): 6.807e-5; Mean fraction #NGS counts mimetic peptide / total count selection (DLG1 PDZ2; phosphomimetic peptide): 0.002811
KGRAKGEPV | – | 0 | – | – | –
RSRSISTDV [FAM163B] | – | – | 0 | 2.348e-5 | –
TMFLRETSL [GUCY1A2] | – | – | 0.5527 | 0.1808 | –
YSPSMTMSV | 7.133e-5 | – | – | – | –
PLHSLETSL [ATP2B1] | – | – | 0.0003108 | 1.381e-5 | –
RQTSYQGVL | 0.008629 | – | – | – | Mean fraction #NGS counts wt peptide / total counts selection (DLG1 PDZ2): 0.001671
KSEPFLTWL [WWTR1] | – | – | 1.399e-5 | 1.381e-5 | –
SIDLWETAL [SLC15A5] | – | – | 0.0004582 | 1.656e-5 | –
PANRRTTPV | 0 | – | – | – | Mean fraction #NGS counts wt peptide / total counts selection (DLG1 PDZ1): 0
TALKVMTMV [DACT2] | – | – | 2.797e-5 | 9.668e-6 | –
SRDRKEESI | – | 5.904e-6 | – | – | Mean fraction #NGS counts mimetic peptide / total count selection (Scribble PDZ3): 2.019e-6; Mean fraction #NGS counts mimetic peptide / total count selection (DLG1 PDZ2): 0
YEPSMEMSV | – | 0.001067 | – | – | –
VWLRKETRV [CYSLTR2] | – | – | 7.3245e-6 | 0 | –
KGRAKGTPV | 0.0008774 | – | – | – | –
